25 molecules from patent US20060135773A1, “Trisubstituted nitrogen modulators of tyrosine phosphatases” (priority 2004, published 2006) can be followed below.

The experiment concerns the target T1, PTP-1B (Homo sapiens, UniProt P18031).
T1 construct: PTP-1B (purified, 1 mg/mL) as a 1:250 dilution
T1 sequence (P18031 1-321 limits assumed): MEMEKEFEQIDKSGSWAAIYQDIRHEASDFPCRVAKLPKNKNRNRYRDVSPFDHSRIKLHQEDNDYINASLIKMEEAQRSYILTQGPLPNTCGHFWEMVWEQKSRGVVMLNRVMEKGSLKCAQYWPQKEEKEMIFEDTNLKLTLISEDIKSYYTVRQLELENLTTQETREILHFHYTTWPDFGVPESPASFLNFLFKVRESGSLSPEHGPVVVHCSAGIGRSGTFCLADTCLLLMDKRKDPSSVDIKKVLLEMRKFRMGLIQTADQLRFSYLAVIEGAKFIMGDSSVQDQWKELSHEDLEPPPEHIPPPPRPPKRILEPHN
As to the kind of experiment: pNPP tyrosine phosphatase inhibition assay, PTP-1B. It is filed as biochemical. The note with it: pNPP assay, PTP-1B; read-out: Activity Class (IC50 ranges). The essentials:
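Test compounds were screened at two final levels, 31.3 and 10 µM, against 4 µg/mL purified PTP-1B. The substrate was 10 mM p-nitrophenyl phosphate, with incubation for 10 min at 30°C before a K2CO3 quench. Activity was taken from A405.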

pIC50: −log10 of the molar value. Structures can show the parent of a compound that is named as a salt.

One may read the pIC50 as the IC50 on a negative log10 scale, so that one unit is a factor of ten. For `COc1ccccc1S(=O)(=O)N(Cc1ccc(C(F)(F)P(=O)(O)O)c(Cl)c1)Cc1ccccc1Br` [Compound 178, [(4-{[(2-Bromo-benzyl)-(2-methoxy-benzenesulfonyl)-amino]-methyl}-2-chloro-phenyl)-difluoro-methyl]-phosphonic acid], the negative logarithm of the IC50 (pIC50) was 6.60 to 7.00. To `COc1ccccc1S(=O)(=O)N(Cc1ccc(C(F)(F)P(=O)(O)O)c(Cl)c1)Cc1ccccc1-c1cccnc1` [Compound 179, [(2-Chloro-4-{[(2-methoxy-benzenesulfonyl)-(2-pyridin-3-yl-benzyl)-amino]-methyl}-phenyl)-difluoro-methyl]-phosphonic acid] belongs 6.60 to 7.00.

On to `COc1ccccc1S(=O)(=O)N(Cc1ccc(C(F)(F)P(=O)(O)O)c(Cl)c1)Cc1ccccc1-c1ccncc1` [Compound 180, [(2-Chloro-4-{[(2-methoxy-benzenesulfonyl)-(2-pyridin-4-yl-benzyl)-amino]-methyl}-phenyl)-difluoro-methyl]-phosphonic acid], for which the negative-log IC50 (pIC50) was 6.60 to 7.00.

In the case of `COc1ccccc1S(=O)(=O)N(Cc1ccc(-c2ccc(Cl)c(C(=O)NO)c2)cc1)Cc1ccc(C(F)(F)P(=O)(O)O)c(Cl)c1` [Compound 181, [(2-Chloro-4-{[(4′-chloro-3′-hydroxycarbamoyl-biphenyl-4-ylmethyl)-(2-methoxy-benzenesulfonyl)-amino]-methyl}-phenyl)-difluoro-methyl]-phosphonic acid], the negative-log IC50 (pIC50) is above 7.00. With `COC(=O)c1cccc(-c2ccc(CCN(Cc3ccc(C(F)(F)P(=O)(O)O)c(Cl)c3)S(=O)(=O)c3ccccc3OC)cc2)c1` [Compound 182, 4′-{2-[[3-Chloro-4-(difluoro-phosphono-methyl)-benzyl]-(2-methoxy-benzenesulfonyl)-amino]-ethyl}-biphenyl-3-carboxylic acid methyl ester], the pIC50 is 6.30 to 6.60. On to `COc1cccc(-c2ccccc2CN(Cc2ccc(C(F)(F)P(=O)(O)O)c(Cl)c2)S(=O)(=O)c2ccccc2OC)c1` [Compound 183, [(2-Chloro-4-{[(2-methoxy-benzenesulfonyl)-(3′-methoxy-biphenyl-2-ylmethyl)-amino]-methyl}-phenyl)-difluoro-methyl]-phosphonic acid], for which the pIC50 is above 7.00. Regarding `COc1ccccc1S(=O)(=O)N(Cc1ccc(C(F)(F)P(=O)(O)O)c(Cl)c1)Cc1ccccc1-c1cccc(O)c1` [Compound 184, [(2-Chloro-4-{[(3′-hydroxy-biphenyl-2-ylmethyl)-(2-methoxy-benzenesulfonyl)-amino]-methyl}-phenyl)-difluoro-methyl]-phosphonic acid], the pIC50 is 6.60 to 7.00. For `COC(=O)c1cccc(-c2cccc(CCN(Cc3ccc(C(F)(F)P(=O)(O)O)c(Cl)c3)S(=O)(=O)c3ccccc3OC)c2)c1` [Compound 185, 3′-{2-[[3-Chloro-4-(difluoro-phosphono-methyl)-benzyl]-(2-methoxy-benzenesulfonyl)-amino]-ethyl}-biphenyl-3-carboxylic acid methyl ester], the pIC50 is 6.30 to 6.60.

With `COc1ccccc1S(=O)(=O)N(Cc1ccc(C(F)(F)P(=O)(O)O)c(Cl)c1)Cc1ccccc1-c1cccc(C(N)=O)c1` [Compound 186, [(4-{[(3′-Carbamoyl-biphenyl-2-ylmethyl)-(2-methoxy-benzenesulfonyl)-amino]-methyl}-2-chloro-phenyl)-difluoro-methyl]-phosphonic acid], the pIC50 is 6.60 to 7.00. As for `COc1ccccc1S(=O)(=O)N(CCc1ccc(-c2cccc(C(=O)O)c2)cc1)Cc1ccc(C(F)(F)P(=O)(O)O)c(Cl)c1` [Compound 188, 4′-{2-[[3-Chloro-4-(difluoro-phosphono-methyl)-benzyl]-(2-methoxy-benzenesulfonyl)-amino]-ethyl}-biphenyl-3-carboxylic acid], the pIC50 is 6.30 to 6.60. In the case of `COc1ccccc1S(=O)(=O)N(CCc1cccc(-c2cccc(C(=O)O)c2)c1)Cc1ccc(C(F)(F)P(=O)(O)O)c(Cl)c1` [Compound 189, 3′-{2-[[3-Chloro-4-(difluoro-phosphono-methyl)-benzyl]-(2-methoxy-benzenesulfonyl)-amino]-ethyl}-biphenyl-3-carboxylic acid], the negative logarithm of the IC50 (pIC50) is 6.30 to 6.60. For `NC(=O)c1ccccc1S(=O)(=O)N(Cc1ccccc1)Cc1ccc(C(F)(F)P(=O)(O)O)c(Cl)c1` [Compound 192, [(4-{[Benzyl-(2-carbamoyl-benzenesulfonyl)-amino]-methyl}-2-chloro-phenyl)-difluoromethyl]-phosphonic acid], the negative-log IC50 (pIC50) is 6.30 to 6.60. For the molecule `COc1ccccc1S(=O)(=O)N(Cc1ccc(-c2ccc3c(c2)C(=O)OC3)cc1)Cc1ccc(C(F)(F)P(=O)(O)O)c(Cl)c1` [Compound 197, 6-{4-[({[4-(difluorophosphonomethyl)-3-chlorophenyl]methyl}[(2-methoxyphenyl)sulfonyl]amino)methyl]phenyl}-3-hydroisobenzofuran-1-one], the negative logarithm of the IC50 (pIC50) was 6.60 to 7.00. As to `COc1ccccc1S(=O)(=O)N(Cc1ccc(-c2ccc(CO)c(C(=O)O)c2)cc1)Cc1ccc(C(F)(F)P(=O)(O)O)c(Cl)c1` [Compound 200, 5-{4-[({[4-(difluorophosphonomethyl)-3-chlorophenyl]methyl}[(2-methoxyphenyl)sulfonyl]amino)methyl]phenyl}-2-(hydroxymethyl)benzoic acid,trisodium salt], the pIC50 is 6.60 to 7.00.

For `COc1ccccc1S(=O)(=O)N(Cc1ccc(C(F)(F)P(=O)(O)O)c(Cl)c1)CC12CC3CC(CC(C3)C1)C2` [Compound 201, (Adamantanylmethyl){[4-(difluorophosphonomethyl)-3-chlorophenyl]methyl}[(2-methoxyphenyl)sulfonyl]amine], the pIC50 is 6.30 to 6.60.

With `COc1ccccc1S(=O)(=O)N(Cc1ccc(C(F)(F)P(=O)(O)O)c(Cl)c1)Cc1ccccc1N1CCCCC1` [Compound 208, [(2-Chloro-4-{[(2-methoxy-benzenesulfonyl)-(2-piperidin-1-yl-benzyl)-amino]-methyl}-phenyl)-difluoro-methyl]-phosphonic acid], the pIC50 is 6.30 to 6.60. Consider `COc1ccccc1S(=O)(=O)N(Cc1ccc(C(F)(F)P(=O)(O)O)c(Cl)c1)Cc1ccccc1OC(C)C` [Compound 211, {[4-(difluorophosphonomethyl)-3-chlorophenyl]methyl}[(2-methoxyphenyl)sulfonyl]{[2-(methylethoxy)phenyl]methyl}amine], for which the pIC50 was 6.30 to 6.60.

As to `NC(=O)c1cccc(S(=O)(=O)N(Cc2ccc(C(F)(F)P(=O)(O)O)c(Cl)c2)Cc2ccccc2-c2ccccc2)c1` [Compound 214, [(4-{[Biphenyl-2-ylmethyl-(3-carbamoyl-benzenesulfonyl)-amino]-methyl}-2-chloro-phenyl)-difluoro-methyl]-phosphonic acid], the negative-log IC50 (pIC50) is 6.30 to 6.60. To `COc1ccccc1S(=O)(=O)N(Cc1ccc(C(F)(F)P(=O)(O)O)c(Cl)c1)Cc1ccccc1OCCCC(C)C` [Compound 215, {[2-Chloro-4-({(2-methoxy-benzenesulfonyl)-[2-(4-methyl-pentyloxy)-benzyl]-amino}-methyl)-phenyl]-difluoro-methyl}-phosphonic acid] belongs 6.30 to 6.60. Turning to `N#Cc1cccc(S(=O)(=O)N(Cc2ccc(C(F)(F)P(=O)(O)O)c(Cl)c2)Cc2ccccc2-c2ccccc2)c1` [Compound 216, [(4-{[Biphenyl-2-ylmethyl-(3-cyano-benzenesulfonyl)-amino]-methyl}-2-chloro-phenyl)-difluoro-methyl]-phosphonic acid], the negative-log IC50 (pIC50) is 6.30 to 6.60. As to `CCOc1cccc(-c2ccccc2CN(Cc2ccc(C(F)(F)P(=O)(O)O)c(Cl)c2)S(=O)(=O)c2ccccc2OC)c1` [Compound 217, [(2-Chloro-4-{[(3′-ethoxy-biphenyl-2-ylmethyl)-(2-methoxy-benzenesulfonyl)-amino]-methyl}-phenyl)-difluoro-methyl]-phosphonic acid], the pIC50 is above 7.00. Turning to `CCOC(=O)[C@H](C)NP(=O)(O)C(F)(F)c1ccc(CN(Cc2ccc(-c3cccc(C#N)c3)cc2)S(=O)(=O)c2ccccc2OC)cc1Cl` [Compound 219, [S]-N-[(2-Chloro-4-{[(3′-cyano-biphenyl-4-ylmethyl)-(2-methoxy-benzenesulfonyl)-amino]-methyl}-phenyl)-difluoro-methyl]-phosphonyl-(ethyl alaninate)], the pIC50 was 6.30 to 6.60. Then `COc1ccccc1S(=O)(=O)N(Cc1ccc(-c2ccc(O)c(C(=O)O)c2)cc1)Cc1ccc(OCC(=O)O)c(Cl)c1` [Compound 222, 4′-{[(4-Carboxymethoxy-3-chloro-benzyl)-(2-methoxy-benzenesulfonyl)-amino]-methyl}-4-hydroxy-biphenyl-3-carboxylic acid], with below 4.60. As for `COc1ccccc1S(=O)(=O)N(Cc1ccc(N(CC(C)C(=O)O)C(=O)C(=O)O)cc1)Cc1ccc(N(CC(C)C(=O)O)C(=O)C(=O)O)cc1` (stereo not shown) [Compound 223, 3-[(4-{[{4-[(2-Carboxy-propyl)-oxalyl-amino]-benzyl}-(2-methoxy-benzenesulfonyl)-amino]-methyl}-phenyl)-oxalyl-amino]-2-methyl-propionic acid], the pIC50 was below 4.60. On to `COc1ccccc1S(=O)(=O)N(Cc1ccc(OCC(=O)O)c(C(=O)O)c1)Cc1ccccc1-c1ccccc1` [Compound 224, 5-{[Biphenyl-2-ylmethyl-(2-methoxy-benzenesulfonyl)-amino]-methyl}-2-carboxymethoxy-benzoic acid], for which the pIC50 is below 4.60.
